Data on 13 compounds can be found in US4795761A, “Contraceptive composition” (Euroceltique S.A., priority 1986, dated 1989).

Read-outs that look alike come from different tables or passages of the source.

In one data set the test system is human sperm. Briefly: Human sperm motility, transmembrane migration ratio (two-chamber membrane method). In kind it is cell-based. Conditions: for inhibition at 25000 µM: beta-blocker 25 mM alone; for inhibition at 100 µM: beta-blocker 0.1 mM alone. Here is the method:
A simple method for measuring human sperm motility was developed as a modification to the method of C. […] The method used two chambers separated by a membrane and assessed the proportion of spermatozoa, from a small aliquot of semen, that moved across the membrane from the upper to the lower chamber.
The apparatus consisted of an upper and a lower chamber, the upper chamber being the plunger of a 2 ml disposable syringe. A 13 mm diameter Nuclepore membrane filter was bonded to the plunger using dichloromethane.
The mixture was pre-incubated at 37° C. for 10 minutes.
After pre-incubation the mixture was vortexed and 100 μl was pipetted onto the membrane of the upper chamber. The upper chamber was then inserted into the lower chamber, which contained 2 ml of phosphate buffered saline at 37° C.
The relative positions of the two chambers were fixed so that the fluid levels were equal.
The apparatus was then incubated for 90 mins. at 37° C. After this time, the upper chamber was removed and its contents were washed into 1.9 ml phosphate buffered saline containing 50 ul of 10% formalin solution by breaking the membrane. The spermatozoa in the lower chamber were also killed by adding 50 ul of the formalin to the lower chamber.
Finally, the number of spermatozoa in the upper and lower chambers were counted using a haemocytometer. The proportion of spermatozoa that traverse the membrane into the lower chamber is referred to as the transmembrane migration ratio.
Using the same technique, but a different sperm source the control of sperm motility achieved by nonoxynol-9, various beta-blockers and mixtures of nonoxynol-9 and a beta-blocker was measured. […] Again, mM represents millimolar.

The conditions of data set [1]: cited from earlier work.
[2] abbreviates: Homo sapiens, Sperm, Table 2, beta-blocker 1.0 mM alone, read-out: % Inhibition of Sperm Motility.
Where [3] appears, read: Homo sapiens, Sperm, Table 5, beta-blocker 1 mM alone, read-out: % Inhibition of Sperm Motility.
The mark [4] stands for this setting: Homo sapiens, Sperm, Table 3, beta-blocker 1.0 mM alone, read-out: % Inhibition of Sperm Motility.

Take `CC(C)NCC(O)COc1cccc2ccccc12` (racemic) [d,1-Propranolol]: the values for the inhibition at 1000 µM in the data set on human sperm (setting [2]) and in the data set with human sperm (setting [3]) were 24.6% and 10.5%, respectively.
For the compound `C=CCc1ccccc1OC[C@@H](O)CNC(C)C` [1-Alprenolol], the inhibition at 1000 µM amounted to 17% in the data set with human sperm (setting [2]) and 26.9% in the data set on human sperm (setting [4]).
Consider `CCCC(=O)Nc1ccc(OCC(O)CNC(C)C)c(C(C)=O)c1` (stereo not drawn) [Acebutolol], for which the inhibition at 25000 µM in the data set on human sperm (Homo sapiens, Sperm, Table 4) is 11.3%.
`CCc1cccc2cc(C(O)CNC(C)(C)C)oc12` (stereo not drawn) [Bufuralol]: the inhibition at 1000 µM in the data set on human sperm (Homo sapiens, Sperm, read-out: % Inhibition of Sperm Motility, Table 2, beta-blocker 1.0 mM alone) is 28.5%; in the data set on human sperm (Homo sapiens, Sperm, read-out: % Inhibition of Sperm Motility, Table 3, beta-blocker 1.0 mM alone), 22%. Further, the “apparent octanol/buffer (pH 7.4) partition coefficient” value (shortened to “apparent octanol/buffer”) in data set [1] is reported as “greater than 1”.
As to `COCCc1ccc(OCC(O)CNC(C)C)cc1` (stereo not drawn) [Metoprolol], the inhibition at 10000 µM in the data set with human sperm (Homo sapiens, Sperm, Table 2, beta-blocker 10.0 mM alone) came to 7.1%; in the data set with human sperm (Homo sapiens, Sperm, Table 3, beta-blocker 10 mM alone), 0%.
Take `C=CCOc1ccccc1OCC(O)CNC(C)C` (stereo not drawn) [Oxprenolol]: the inhibition at 5000 µM in the data set with human sperm (Homo sapiens, Sperm, Table 2, beta-blocker 5.0 mM alone) was 3.4%; in the data set on human sperm (Homo sapiens, Sperm, Table 3, beta-blocker 5 mM alone), 0%.
Regarding `CC(C)(C)NC[C@H](O)COc1ccccc1C1CCCC1` [Penbutolol], the inhibition at 100 µM with human sperm (Homo sapiens, Sperm, Table 2) was 6.2%; with human sperm (Homo sapiens, Sperm, Table 3) it was 0%; in the data set on human sperm (Homo sapiens, Sperm, Table 5), 17.8%. Besides, in data set [1], the “apparent octanol/buffer” value is given as “greater than 1”.
On to `CC(C)NCC(O)COc1cccc2[nH]ccc12` (stereo not drawn) [Pindolol], for which, in the data set with human sperm (Homo sapiens, Sperm, Table 3), the inhibition at 25000 µM was found to be 10.2%.
`CC(C)(C)NC[C@H](O)COc1nsnc1N1CCOCC1` [Timolol]: the inhibition at 25000 µM with human sperm (Homo sapiens, Sperm, Table 4) amounted to 4.9%.
Regarding `C=CCc1ccccc1OCC(O)CNC(C)C` (stereo not drawn) [alprenolol], in data set [1], the “apparent octanol/buffer” value is recorded as “greater than 1”.
`CC(C)NC[C@@H](O)COc1cccc2ccccc12` [d-Propranolol]: the inhibition at 1000 µM amounted to 28% in the data set with human sperm (Homo sapiens, Sperm, Table 1, d-Propranolol 1.0 mM alone, % of control, read-out: % Inhibition of Sperm Motility); 3.6% in the data set with human sperm (setting [2]); 4% in the data set on human sperm (setting [4]); 0.2% in the data set on human sperm (setting [3]). In addition, the inhibition at 2500 µM in the data set on human sperm (Homo sapiens, Sperm, Table 1, d-Propranolol 2.5 mM alone, % of control) was 76.5%.
As for Nonoxynol-9, the “% Inhibition of Sperm Motility” value with human sperm (Table 1, Nonoxynol-9 0.16 mM alone, % of control) amounted to 12.5%; with human sperm (Table 1, Nonoxynol-9 1.6 mM alone, % of control), 97.7%; in the data set with human sperm (Table 2, different sperm source, Nonoxynol-9 at its IC50, alone), 50%; in the data set on human sperm (Table 3, another sperm source, Nonoxynol-9 at its IC50, alone), 50.0%; in the data set with human sperm (Table 4, another sperm source, Nonoxynol-9 at its IC50, alone), 50.0%.
Take Octoxynol: in the data set on human sperm (Table 5, another sperm source, Octoxynol at its IC50, alone), the “% Inhibition of Sperm Motility” value came out at 50.0%.
